Reference: publication PMC12040169 (PLOS Biology, 2025)

Legend:
in vitro [1] = conditions: human, hela cells, % viability
[2] = tested on: T1, C. trachomatis L2/434/Bu expressing GFP (CTL2-GFP); experiment: microbe, parasite or virus in culture; parameters: C. trachomatis total inclusion area by high-content imaging, normalised to DMSO; conditions: Chlamydia trachomatis, HeLa, 28.5 h; total inclusion area; read-out: % of control remaining
T1 construct: L2/434/Bu GFP intracellular growth in HeLa cells
Procedure, shortened: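 GFP/resorufin bulk fluorescence read → fix → Hoechst stain → high-content imaging. Inclusion total area + count = growth proxy; nuclei count = host viability proxy. MIC calc per earlier method.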

[3] = tested on: T2, CTL2-GFP (C. trachomatis L2/434/Bu, GFP-expressing); experiment: microbe, parasite or virus in culture; parameters: Intracellular C. trachomatis growth in HeLa cells, bulk GFP fluorescence relative to DMSO; conditions: Chlamydia trachomatis, HeLa, 28.5 h; bulk GFP, mean of 2; read-out: % of control remaining
T2 construct: L2/434/Bu, GFP-expressing
Procedure: MICs were calculated as described above.

in vitro [4] = experiment: in vitro; parameters: Viability of infected HeLa host cells, resazurin conversion, bulk resorufin fluorescence relative to DMSO; conditions: human, hela cells; bulk resorufin, mean of 2

Row | SMILES | viability at 28.5 h, 10 µM (in vitro [1]) | activity at 1 µM [2] | activity at 5 µM [2] | activity at 10 µM [2] | activity at 1 µM [3] | activity at 5 µM [3] | activity at 10 µM [3] | viability at 28.5 h, 1 µM (in vitro [4]) | viability at 28.5 h, 5 µM (in vitro [4]) | viability at 28.5 h, 10 µM (in vitro [4])
1 | CCC(c1ccc(F)cc1)N(C)C(=O)Cn1cc(C(=O)NC2CCCCC2)ccc1=O (centres unmarked) [CBK286106] | 89.8% | 114% | 27.8% | 2.51% | 128% | 21.7% | 7.58% | 89.5% | 95.3% | 87.5%
2 | O=C(Nc1ccc(F)c(F)c1)NC1CCC2CN(CCOc3ccccc3)CC2C1 (centres unmarked) [CBK083365T] | 105% | 35.6% | 0.438% | 0.173% | 34.9% | 8.25% | 5.26% | 89.3% | 86.5% | 88.8%
3 | O=C(Nc1cccc(OC(=O)c2cc(S(=O)(=O)N3CCCCC3)ccc2Cl)c1)c1ccco1 [CBK262186] | 110% | 101% | 85.8% | 33.3% | 110% | 106% | 76.3% | 101% | 96.6% | 100%
4 | CCn1c2c(c3cc(S(=O)(=O)c4ccc(C(F)(F)F)cc4)ccc31)CCNCC2 [CBK018453C] | 97.5% | 133% | 58.6% | 12.8% | 143% | 54.5% | 5.22% | 94.5% | 89.4% | 91.9%
5 | Cc1cc2nc(-c3ccccn3)[nH]c2cc1C [CBK000122] | 119% | 97.4% | 31% | 9.06% | 129% | 36.8% | 14.3% | 94.7% | 90.3% | 89.1%
6 | Cc1cc(C)nc(NS(=O)(=O)c2ccc(NC(=O)N3c4ccccc4Sc4ccccc43)cc2)n1 [CBK263922] | 101% | 112% | 51.2% | 28.5% | 115% | 67.1% | 28.2% | 92.3% | 90.2% | 89.4%
7 | CCN(CC)CCNc1nc(-c2cccc(Cl)c2)nc2ccccc12 [CBK267265C] | 90.7% | 85% | 45.3% | 26.4% | 108% | 98.1% | 55.5% | 104% | 104% | 108%
8 | CN1CCCN(c2ccc(NS(=O)(=O)c3cccc(F)c3)c3ccccc23)CC1 [CBK200010C] | 84.9% | 77.8% | 43.7% | 26.8% | 108% | 66.2% | 43.7% | 94.4% | 100% | 95.1%
9 | O=C(O)c1[nH]c2ccccc2c1C(c1ccsc1)c1c(C(=O)O)[nH]c2ccccc12 [CBK267811] | – | 49.5% | 80.4% | 22.6% | 113% | 109% | 85.2% | 99.3% | 106% | 121%
10 | Cc1cccc(N(C)S(=O)(=O)c2ccc(N3CCCNCC3)c3ccccc23)c1C [CBK004430C] | – | 121% | 56.7% | 8.36% | 142% | 95.8% | 45.1% | 89.7% | 84.9% | 88.8%
11 | Cn1cncc1C(=O)NCc1ccccc1 [CBK200199] | – | 111% | 106% | 69.3% | 95.8% | 109% | 110% | 114% | 107% | 104%
12 | O=C(O)c1cn(C2CC2)c2cc(N3CCN(C(=O)Cc4ccccc4Cl)CC3)c(F)cc2c1=O [CBK297136] | – | 145% | 74.4% | 16.8% | 153% | 90.9% | 28.4% | 88.5% | 89.1% | 93.4%
13 | C[C@@H]1CN(c2ccc(C(F)(F)F)c(OCc3ccccc3)n2)CCN1 [CBK003987A] | – | 70.4% | 53.4% | 17.6% | 110% | 90.5% | 35% | 102% | 98.9% | 113%
14 | Cc1ccc(C(=O)/C=C\Nc2ccc(S(=O)(=O)Nc3cc(C)nc(C)n3)cc2)cc1 [CBK264384] | – | 79.2% | 51.7% | 35.8% | 110% | 72.4% | 31.8% | 107% | 108% | 104%
15 | CN1CCN(c2cc3c(cc2F)c(=O)c(C(=O)O)cn3-c2ccc(F)cc2)CC1 [CBK287138] | – | 11.1% | 0.783% | 0.31% | 14.6% | 5.16% | 0.93% | 103% | 102% | 104%
16 | Cc1ccc(Nc2ncc(C(=O)NCCCN3CCN(c4cccc(Cl)c4)CC3)c3ccccc23)cc1Cl [CBK291251] | – | 93.1% | 97.7% | 75.8% | 89.3% | 83.3% | 70.2% | 106% | 113% | 99.2%
17 | CCC1C(c2ccc(C)cc2)=CCC(C(=O)NCCCN(C)C)C1C (centres unmarked) [CBK016514] | – | 109% | 44.4% | 8.47% | 112% | 33.9% | 9.47% | 104% | 88.9% | 100%
18 | COc1ccc(CC(=O)N2CCCC(c3nc(C)c4c(n3)N(CC3CC3)CCC4)C2)cc1 (centres unmarked) [CBK286228] | – | 88.7% | 46.6% | 3.42% | 130% | 39.3% | 5.11% | 102% | 97.8% | 97%
19 | O=C(Nc1ccc2[nH]ccc2c1)c1ccccc1Nc1cccc(C(F)(F)F)c1 [CBK149583] | – | 93.2% | 59.8% | 72.2% | 119% | 90% | 67.7% | 118% | 114% | 112%
20 | CN(C(=O)Cc1ccsc1)c1nc2c(s1)CCc1c-2cnn1C [CBK281929] | – | 85.4% | 28.7% | 14.3% | 104% | 56.8% | 29.8% | 103% | 96% | 93.3%
21 | COc1ccccc1N/C(=N\OCc1ccc(Cl)cc1Cl)c1nonc1N [CBK018391] | – | 89.5% | 84% | 56.1% | 137% | 122% | 103% | 90.7% | 92.4% | 94.7%
22 | c1ccc(Oc2cccc(OCCCN3CCCCC3)c2)cc1 [CBK261781] | – | 122% | 69.2% | 23.4% | 131% | 133% | 74.4% | 103% | 97% | 101%
23 | Cc1cc(Br)ccc1S(=O)(=O)N(C)c1ccc(N2CCNCC2)c2ccccc12 [CBK016170C] | – | 63.9% | 26.9% | 12.9% | 106% | 75.3% | 35.2% | 91.8% | 92.1% | 112%
24 | CC(C)NCC(O)Cn1c2c(c3ccccc31)CCc1c-2cnn1-c1ccccc1 (centres unmarked) [CBK261107] | – | 102% | 73.8% | 19.6% | 101% | 105% | 19.8% | 87.2% | 89.4% | 82.4%
